For data set [1] the following is noted: human plasma, pH 7.4, 37° C.; cited from earlier work.
For data set [2] the following is noted: whole blood; cited from earlier work.
The target of data set [3] is human serum albumin (HSA) (Homo sapiens, UniProt P02768). To be noted: PBS at pH 7.4; cited from earlier work.
The subject of data set [4] is A375 human melanoma xenografts. As to the kind of experiment: A375 human melanoma xenograft study 1 (tumor growth delay, toxicity). The following applies: for share of mice with CR responses: q3d×4. In general terms: In xenograft studies the graft and the host belong to different species.
Excerpt: The following study evaluates two intravenous formulations according to the present invention against human tumor xenografts in athymic nude mice. The study used the A375 human melanoma xenograft model to compare the in vivo antitumor efficacy of I.V. 9-nitro-camptothecin, in vehicles containing IDD-P which provides a particulate suspension of 9-nitro-camptothecin, and IDD-D which provides a droplet suspension of 9-nitro-camptothecin, to the efficacy of oral 9-nitro-camptothecin and intraperitoneal CAMPTOSAR®, HYCAMTIN®, and DTIC®.
In order to assess antitumor efficacy, groups of athymic nude mice (n=10) bearing ˜72-mg A375 melanomas were treated intravenously on the 5/2/5 schedule with 9-nitro-camptothecin in IDD-P at 3.0 mg/kg or 1.5 mg/kg and 9-nitro-camptothecin in IDD-D at 2.0 mg/kg or 1.0 mg/kg.
Husbandry: Female nude mice were 16 weeks of age (NCR-nufBr; Taconic Farms) for the A375 study. The mice were fed ad libitum water (reverse osmosis, 1 ppm Cl) and autoclaved Prolab NIH-31 M/5% Rodent Diet consisting of 18% protein, 5% fat, 6% fiber, and 8% ash. Mice were housed in static microisolators on a 12-hour light cycle at 21-22° C. (70-72° F.) and 40%-60% humidity.
Tumor Implantation: An A375 melanoma fragment (1 mm 3 ) was implanted subcutaneously in the flank of each nude mouse. When the tumors reached the 60-112 mg size range, the mice were sorted into treatment groups (on Day 1) such that the group mean tumor sizes ranged from 71.3 mg-72.5 mg. Estimated tumor weight was calculated using the formula: [formula]
Drug Formulations: IDD-P with a mean particle size of 0.07-0.06 mm and IDD-D with a mean particle size of 0.15 mm were prepared for the study by RTP Pharma Inc. For this, the 9-nitro-camptothecin suspensions were diluted with water and vehicle to provide doses of 3 mg/kg and 1.5 mg/kg in 33% IDD-P, and doses of 2 mg/kg and 1 mg/kg in 100% and 50% IDD-D, respectively. After dilution, 9-nitro-camptothecin suspensions were mixed thoroughly by gentle agitation and stored at 2-8° C. For its oral formulation, 9-nitro-camptothecin was dissolved in DMA (N,N-dimethylacetamide, SIGMA) and diluted with D5W to yield a final DMA concentration of 3%. CAMPTOSAR®, DTIC®, and HYCAMTIN® were obtained as the marketed drugs and solutions were prepared fresh on the day of dosing. CAMPTOSAR® (irinotecan, Pharmacia & Upjohn Company, 20 mg/ml) and DTIC® (dacarbazine, Bayer Corporation, 20 mg/ml) were diluted with D5W. HYCAMTIN® (topotecan, SmithKlein Beecham) was reconstituted with water at 1 mg/ml.
Treatments: Volumes of 0.20 ml per 20-g mouse, body-weight adjusted, were administered once daily. Tumor-bearing athymic nude mice were matched on Day 1 into 13 groups of ten animals and drug administration was initiated. The I.V. formulations of 9-nitro-camptothecin were given once daily on a 5/2/5 schedule as shown in the protocol summary shown in FIG. 4. Oral 9-nitro-camptothecin doses were given on a q3d×4 schedule (Days 1, 4, 8, and 11). Three reference drugs were administered I.P.: CAMPTOSAR® was given in three doses at weekly intervals (qwk×3); HYCAMTIN® was given in four doses at four-day intervals (q4d×4); and DTIC® was given in five consecutive daily doses (qd×5). The tumor growth control group for these reference treatments received no treatment (Group 1). The 9-nitro-camptothecin vehicle: 33.3% IDD-P, 100% IDD-D, and 3% DMA, was administered to vehicle control Groups 2-4, respectively.
Tumor Growth Endpoint: The tumor growth delay (TGD) method was used to assess efficacy. Tumor dimensions were measured twice weekly until the experiment was terminated on Day 62.
[5] abbreviates: 2.0 mg/kg p.o., q3d×4, Group 13, Day 62.
Setting [6] is: 4.0 mg/kg p.o., q3d×4, Group 12, Day 62.

The values that follow come from patent US6534080B2, “Method for administering camptothecins via injection of pharmaceutical composition comprising coated particles of a camptothecin” (priority 2001, dated 2003).

Sequence of human serum albumin (HSA) (P02768 25-609): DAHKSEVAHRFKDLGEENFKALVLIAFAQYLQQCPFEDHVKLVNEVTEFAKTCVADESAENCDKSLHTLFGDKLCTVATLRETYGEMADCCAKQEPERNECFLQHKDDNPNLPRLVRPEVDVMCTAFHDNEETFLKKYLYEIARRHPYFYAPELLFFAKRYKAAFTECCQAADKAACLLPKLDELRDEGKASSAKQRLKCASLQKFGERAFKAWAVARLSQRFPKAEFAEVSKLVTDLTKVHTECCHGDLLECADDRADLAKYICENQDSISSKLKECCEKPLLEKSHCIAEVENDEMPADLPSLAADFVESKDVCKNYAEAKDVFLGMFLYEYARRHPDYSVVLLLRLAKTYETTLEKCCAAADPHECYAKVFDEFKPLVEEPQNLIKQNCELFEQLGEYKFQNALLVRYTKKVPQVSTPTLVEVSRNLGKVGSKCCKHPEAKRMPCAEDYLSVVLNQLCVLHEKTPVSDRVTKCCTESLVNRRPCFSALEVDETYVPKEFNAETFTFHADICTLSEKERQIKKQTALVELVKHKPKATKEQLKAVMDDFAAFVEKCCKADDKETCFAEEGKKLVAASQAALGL

With `CC[C@@]1(O)C(=O)OCc2c1cc1n(c2=O)Cc2cc3ccccc3nc2-1` [camptothecin, 20(S)-camptothecin], the “half-life of α-hydroxy lactone ring opening” value in data set [1] is reported as 11 min. In addition, the “half-life of α-hydroxy lactone” value in data set [2] is recorded as 22 min.

Take `CC[C@@](O)(C(=O)O)c1cc2n(c(=O)c1CO)Cc1cc3ccccc3nc1-2` [carboxylate form of camptothecin]: the “affinity for HSA of carboxylate form relative to α-hydroxy lactone form” value in data set [3] is listed as 150 fold.

Take `CC[C@@]1(O)C(=O)OCc2c1cc1n(c2=O)Cc2cc3c([N+](=O)[O-])cccc3nc2-1` [9-nitro-camptothecin in 3% DMA, 9-nitro-20(S)-camptothecin]: the “share of mice with CR responses” value in data set [4] (2 mg/kg p.o.) and in data set [4] (4 mg/kg p.o.) was 40% throughout. The CR responses in data set [4] (setting [5]) and in data set [4] (setting [6]) was 4 each time. Also, in data set [4] (setting [5]), the “PR responses (printed RP)” value amounted to 1. Further, the SD/PD responses in data set [4] (setting [5]) is recorded as 2; in data set [4] (setting [6]), 3. The 62-day survivors result in data set [4] (2.0 mg/kg p.o., q3d×4, Group 13, n=10) is “seven”; in data set [4] (4.0 mg/kg p.o., q3d×4, Group 12, n=10) it was “seven”.

In the case of `CCc1c2c(nc3ccc(OC(=O)N4CCC(N5CCCCC5)CC4)cc13)-c1cc3c(c(=O)n1C2)COC(=O)[C@]3(O)CC` [CAMPTOSAR®, irinotecan], in data set [4] (100 mg/kg I.P., qwk×3, Group 5, Day 62), the CR responses entry is “single and one”.

On to `CN(C)/N=N/c1[nH]cnc1C(N)=O` [DTIC®, dacarbazine], for which, in data set [4] (150 mg/kg I.P., qd×5, Group 7, n=10), the toxic deaths result is “one and One”.

Regarding `CC[C@@]1(O)C(=O)OCc2c1cc1n(c2=O)Cc2cc3c(CN(C)C)c(O)ccc3nc2-1` [HYCAMTIN®, topotecan], the CR responses result in data set [4] (10 mg/kg I.P., q4d×4, Group 6, Day 62) was “single and one”.
